Reference: ChEMBL document CHEMBL1671627, “Increasing trends in antimicrobial resistance among clinically important anaerobes and Bacteroides fragilis isolates causing nosocomial infections: emerging resistance to carbapenems” (2008)
Converted amounts (≈) assume the structure as drawn.

Tests used:
[1] = test system: Bacteroides caccae; assay: Antibacterial activity against beta-lactamase producing Bacteroides caccae by CLSI agar dilution method; assay type: functional
[2] = test system: Finegoldia magna; assay: Antibacterial activity against beta-lactamase producing Finegoldia magna assessed as resistant isolates by CLSI agar dilution method; assay type: functional
[3] = test system: Prevotella intermedia; assay: Antibacterial activity against Prevotella intermedia assessed as susceptible isolates by CLSI agar dilution method; assay type: functional
[4] = test system: Bacteroides thetaiotaomicron; assay: Antibacterial activity against beta-lactamase producing Bacteroides thetaiotaomicron by CLSI agar dilution method; assay type: functional
[5] = test system: Fusobacterium mortiferum; assay: Antibacterial activity against Fusobacterium mortiferum by CLSI agar dilution method; assay type: functional
[6] = test system: Fusobacterium nucleatum; assay: Antibacterial activity against Fusobacterium nucleatum by CLSI agar dilution method; assay type: functional
[7] = test system: Bacteroides fragilis; assay: Antibacterial activity against Bacteroides fragilis assessed as resistant isolates by CLSI agar dilution method; assay type: functional
[8] = test system: Clostridium septicum; assay: Antibacterial activity against beta-lactamase producing Clostridium septicum assessed as susceptible isolates by CLSI agar dilution method; assay type: functional
[9] = test system: Clostridium paraputrificum; assay: Antibacterial activity against beta-lactamase producing Clostridium paraputrificum assessed as resistant isolates by CLSI agar dilution method; assay type: functional
[10] = test system: Peptostreptococcus anaerobius; assay: Antibacterial activity against beta-lactamase producing Peptostreptococcus anaerobius assessed as resistant isolates by CLSI agar dilution method; assay type: functional
[11] = test system: Prevotella buccae; assay: Antibacterial activity against Prevotella buccae assessed as resistant isolates by CLSI agar dilution method; assay type: functional, Segatella buccae
[12] = test system: Veillonella parvula; assay: Antibacterial activity against Veillonella parvula by CLSI agar dilution method; assay type: functional
[13] = test system: Prevotella buccae; assay: Antibacterial activity against Prevotella buccae assessed as susceptible isolates by CLSI agar dilution method; assay type: functional, Segatella buccae
[14] = test system: Fusobacterium varium; assay: Antibacterial activity against Fusobacterium varium assessed as susceptible isolates by CLSI agar dilution method; assay type: functional
[15] = test system: Clostridium tertium; assay: Antibacterial activity against beta-lactamase producing Clostridium tertium by CLSI agar dilution method; assay type: functional
[16] = test system: Peptostreptococcus anaerobius; assay: Antibacterial activity against beta-lactamase producing Peptostreptococcus anaerobius assessed as susceptible isolates by CLSI agar dilution method; assay type: functional
[17] = test system: Peptoniphilus asaccharolyticus; assay: Antibacterial activity against beta-lactamase producing Peptoniphilus asaccharolyticus assessed as resistant isolates by CLSI agar dilution method; assay type: functional
[18] = test system: Bacteroides caccae; assay: Antibacterial activity against beta-lactamase producing Bacteroides caccae assessed as resistant isolates by CLSI agar dilution method; assay type: functional
[19] = test system: Fusobacterium nucleatum; assay: Antibacterial activity against Fusobacterium nucleatum assessed as susceptible isolates by CLSI agar dilution method; assay type: functional
[20] = test system: Prevotella melaninogenica; assay: Antibacterial activity against Prevotella melaninogenica assessed as resistant isolates by CLSI agar dilution method; assay type: functional
[21] = test system: Parvimonas micra; assay: Antibacterial activity against beta-lactamase producing Micromonas micros assessed as susceptible isolates by CLSI agar dilution method; assay type: functional
[22] = test system: Prevotella melaninogenica; assay: Antibacterial activity against Prevotella melaninogenica assessed as susceptible isolates by CLSI agar dilution method; assay type: functional
[23] = test system: Bacteroides fragilis; assay: Antibacterial activity against Bacteroides fragilis assessed as susceptible isolates by CLSI agar dilution method; assay type: functional
[24] = test system: Peptoniphilus asaccharolyticus; assay: Antibacterial activity against beta-lactamase producing Peptoniphilus asaccharolyticus by CLSI agar dilution method; assay type: functional
[25] = test system: Bacteroides uniformis; assay: Antibacterial activity against beta-lactamase producing Bacteroides uniformis assessed as susceptible isolates by CLSI agar dilution method; assay type: functional
[26] = test system: Fusobacterium necrophorum; assay: Antibacterial activity against Fusobacterium necrophorum by CLSI agar dilution method; assay type: functional
[27] = test system: Finegoldia magna; assay: Antibacterial activity against beta-lactamase producing Finegoldia magna assessed as susceptible isolates by CLSI agar dilution method; assay type: functional
[28] = test system: Fusobacterium necrophorum; assay: Antibacterial activity against Fusobacterium necrophorum assessed as susceptible isolates by CLSI agar dilution method; assay type: functional
[29] = test system: Prevotella intermedia; assay: Antibacterial activity against Prevotella intermedia assessed as resistant isolates by CLSI agar dilution method; assay type: functional
[30] = test system: Prevotella buccae; assay: Antibacterial activity against Prevotella buccae by CLSI agar dilution method; assay type: functional; conditions: Segatella buccae
[31] = test system: Phocaeicola vulgatus; assay: Antibacterial activity against beta-lactamase producing Bacteroides vulgatus assessed as resistant isolates by CLSI agar dilution method; assay type: functional
[32] = test system: Clostridium tertium; assay: Antibacterial activity against beta-lactamase producing Clostridium tertium assessed as susceptible isolates by CLSI agar dilution method; assay type: functional
[33] = test system: Prevotella intermedia; assay: Antibacterial activity against Prevotella intermedia by CLSI agar dilution method; assay type: functional

`Cc1ncc([N+](=O)[O-])n1CCO` [METRONIDAZOLE] showed an MIC50 [1] of 1 µg/mL (≈ 5.84 µM), an MIC90 [1] of 4 µg/mL (≈ 23.4 µM) and an Activity [2] of 9%. The Activity [3] was 94%, the MIC50 [4] was 1 µg/mL (≈ 5.84 µM) and the MIC90 [4] was 2 µg/mL (≈ 11.7 µM). It also gave an MIC50 [5] of 0.5 µg/mL (≈ 2.92 µM), an MIC90 [5] of 1 µg/mL (≈ 5.84 µM) and an MIC50 [6] of 0.5 µg/mL (≈ 2.92 µM). For the same compound, the MIC90 [6] was 1 µg/mL (≈ 5.84 µM), the Activity [7] was 0% and the Activity [8] was 64%. The Activity [9] was 11%, the Activity [10] was 9% and the Activity [11] was 0%. For the same compound, the MIC [12] was 1 µg/mL (≈ 5.84 µM), the Activity [13] was 94% and the Activity [14] was 100%. For the same compound, the MIC50 [15] was 8 µg/mL (≈ 46.7 µM), the MIC90 [15] was 16 µg/mL (≈ 93.5 µM) and the Activity [16] was 88%. The Activity [17] was 9%, the Activity [18] was 0% and the Activity [19] was 100%. For the same compound, the Activity [20] was 0%, the Activity [21] was 88% and the Activity [22] was 94%. The Activity [23] was 98%, the MIC50 [24] was 0.5 µg/mL (≈ 2.92 µM) and the MIC90 [24] was 16 µg/mL (≈ 93.5 µM). The Activity [25] was 100%, the MIC50 [26] was 0.5 µg/mL (≈ 2.92 µM) and the MIC90 [26] was 1 µg/mL (≈ 5.84 µM). The Activity [27] was 88%, the Activity [28] was 100% and the Activity [29] was 0%. For the same compound, the MIC50 [30] was 1 µg/mL (≈ 5.84 µM), the MIC90 [30] was 8 µg/mL (≈ 46.7 µM) and the Activity [31] was 0%. For the same compound, the Activity [32] was 64%, the MIC50 [33] was 1 µg/mL (≈ 5.84 µM) and the MIC90 [33] was 8 µg/mL (≈ 46.7 µM).
